In patent US7115658B2 (priority 2002, dated 2006) one finds IC50 data, which are given here for 14 molecules.

The target of this experiment is T1, Recombinant HCV polymerase (Hepatitis C virus genotype 1b, UniProt P26663).
T1 construct: 2.5 pmoles (0.15 μg) HCV polymerase protein
The experiment is described as follows: HCV Polymerase Inhibition Assay. In kind it is biochemical. The following applies: primer/template-directed transcription, 30 minutes at 30° C. A digest of the protocol:
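Recombinant genotype 1b polymerase (2.5 pmol) extended biotin-dG12 on poly(rC)300 with 1 μM GTP plus α-32P-GTP, pH 7.2, 30 min at 30 °C, 1% DMSO final; DE-filter-bound product counted. IC50 fitted from triplicate cpm, refitted with enzyme-concentration (30 nM) tight-binding equation when below 200 nM.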

Read-outs that look alike come from different tables or passages of the source.

T1 sequence (P26663 2420-3010): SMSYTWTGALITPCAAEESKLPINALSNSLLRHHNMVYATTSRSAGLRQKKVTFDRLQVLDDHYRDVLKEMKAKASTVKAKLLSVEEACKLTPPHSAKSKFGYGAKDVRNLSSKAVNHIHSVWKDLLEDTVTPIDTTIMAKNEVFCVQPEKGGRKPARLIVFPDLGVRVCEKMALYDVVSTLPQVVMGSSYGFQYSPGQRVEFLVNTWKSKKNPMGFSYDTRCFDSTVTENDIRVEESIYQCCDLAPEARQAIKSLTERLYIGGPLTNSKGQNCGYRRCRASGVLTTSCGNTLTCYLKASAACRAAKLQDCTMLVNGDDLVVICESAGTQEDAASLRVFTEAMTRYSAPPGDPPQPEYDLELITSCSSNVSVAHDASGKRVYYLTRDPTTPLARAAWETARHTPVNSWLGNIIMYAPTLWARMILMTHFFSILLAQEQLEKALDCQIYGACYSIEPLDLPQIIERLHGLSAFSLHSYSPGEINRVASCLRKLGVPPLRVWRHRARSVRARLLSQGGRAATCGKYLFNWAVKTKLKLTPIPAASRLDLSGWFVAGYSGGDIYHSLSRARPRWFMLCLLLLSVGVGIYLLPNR

Take `Cc1cc(SC2=C(O)C[C@](CCc3cccc(O)c3)(C3CCCC3)OC2=O)c(C(C)(C)C)cc1CO` [Example 153, (R)-3-(2-tert-butyl-4-hydroxymethyl-5-methyl-phenylsulfanyl)-6-cyclopentyl-4-hydroxy-6-[2-(3-hydroxy-phenyl)-ethyl]-5,6-dihydro-pyran-2-one]: where the note is “category symbol”, the IC50 (commonly the concentration that inhibits the measured activity by half) is < 1 µM.
In the case of `COc1ccc(CCC2(C3CCCC3)CC(=O)C(Cc3ccccc3)C(=O)O2)cc1Cl` (centres unmarked) [Example 178, 3-Benzyl-6-[2-(3-chloro-4-methoxy-phenyl)-ethyl]-6-cyclopentyl-dihydro-pyran-2,4-dione], the IC50 (read-out: IC50(μM) Category) came out at 0.6 µM.
In the case of `CC(=O)c1ccc(CCC2(C3CCCC3)CC(=O)CC(=O)O2)cc1F` (centres unmarked) [Example 59, 6-[2-(4-Acetyl-3-fluoro-phenyl)-ethyl]-6-cyclopentyl-dihydro-pyran-2,4-dione], the IC50 (category symbol) is 1 to 10 µM.
Still for that read-out and setting: as for `CC(=O)c1ccc(CCC2(C3CCCC3)CC(O)=CC(=O)O2)cc1C` (centres unmarked) [Example 17, 6-[2-(4-Acetyl-3-methyl-phenyl)-ethyl]-6cyclopentyl-4-hydroxy-5,6-dihydro-pyran-2-one], the figure is 1 to 10 µM; as for `CCOc1c(F)cc(CCC2(C3CCCC3)CC(=O)CC(=O)O2)cc1F` (centres unmarked) [Example 42], 1 to 10 µM; as for `Cc1cc(SC2=C(O)CC(CCc3cc(Cl)c(N)c(Cl)c3)(C(C)C)OC2=O)c(C(C)(C)C)cc1N` (centres unmarked) [Example 138, 3-(4-Amino-2-tert-butyl-5-methyl-phenylsulfanyl)-6-[2-(4-amino-3,5-dichloro-phenyl)-ethyl]-4-hydroxy-6-isopropyl-5,6-dihydro-pyran-2-one], 10 to 50 µM.
The same measure, in the same setting: as for `CCOC(=O)c1cnc(SC2=C(O)CC(CCc3cc(Cl)c(OC)cc3OC)(C3CCCC3)OC2=O)[nH]1` (centres unmarked) [Example 100, Ethyl 2-({6-[2-(5-chloro-2,4-dimethoxyphenyl)ethyl]-6-cyclopentyl-4-hydroxy-2-oxo-5,6-dihydro-2H-pyran-3-yl}thio)-1H-imidazol-4-carboxylate], the figure is < 1 µM; as for `Cc1noc(C)c1COc1ccc(CCC2(C3CCCC3)CC(O)=CC(=O)O2)cc1` (centres unmarked) [Example 49, 6-Cyclopentyl-6-(2-{4-[(3,5-dimethylisoxazol-4-yl)methoxy]phenyl}ethyl)-4-hydroxy-5,6-dihydro-2H-pyran-2-one], 10 to 50 µM.
On the same count and under the same terms, as for `COc1ccc(CCC2(C3CCCC3)CC(O)=C(Sc3nc4nc[nH]c4c(=O)[nH]3)C(=O)O2)cc1` (centres unmarked) [Example 118, 2-((6-Cyclopentyl-4-hydroxy-6-[2-(4-methoxyphenyl)ethyl]-2-oxo-5,6-dihydro-2H-pyran-3-yl}thio)-1,7-dihydro-6H-purin-6-one], the figure is < 1 µM.
`O=C1C=C(O)CC(CCc2cc3ccccc3o2)(C2CCCC2)O1` (centres unmarked) [Example 46, 6-[2-(1-benzofuran-2-yl)ethyl]-6-cyclopentyl-4-hydroxy-5,6-dihydro-2H-pyran-2-one]: where the note is “category symbol”, the IC50 was 10 to 50 µM.
For `O=C1OC(CCc2ccc(O)cc2)(C2CCCC2)CC(O)=C1SCc1ccccc1` (centres unmarked) [Example 84, 3-Benzylsulfanyl-6-cyclopentyl-4-hydroxy-6-[2-(4-hydroxyphenyl)ethyl]-5,6-dihydropyran-2-one], the IC50 (category symbol) was 1 to 10 µM.
`Cc1cc(SC2=C(O)CC(CCc3ccc(O)cc3)(C3CCCC3)OC2=O)c(C(C)(C)C)cc1N` (centres unmarked) [Example 136, 3-(4-Amino-2-tert-butyl-5-methyl-phenylsulfanyl)-6-cyclopentyl-4-hydroxy-6-[2-(4-hydroxy-phenyl)-ethyl]-5,6-dihydro-pyran-2-one]: the half-maximal inhibitory concentration (IC50) (category symbol) is < 1 µM.
The same measure, in the same setting: as for `COC(=O)Cc1ccc(CCC2(C3CCCC3)CC(=O)CC(=O)O2)cc1` (centres unmarked) [Example 10, {4-[2-(2-Cyclopentyl-4,6-dioxo-tetrahydro-pyran-2-yl)-ethyl]-phenyl}-acetic acid methyl ester], the figure is 10 to 50 µM; as for `COc1c(F)cc(CCC2(C3CCCC3)CC(=O)CC(=O)O2)cc1F` (centres unmarked) [Example 43, 6-Cyclopentyl-6-[2-(3,5-difluoro-4-methoxy-phenyl)-ethyl]-dihydro-pyran-2,4-dione], 1 to 10 µM.
